From patent US10266566B2, “Protease-resistant peptide ligands” (North Carolina State University, priority 2013, dated 2019)
“Also recorded” adds a separate entry of the source. Where a SMILES comes first, the peptide text is derived from it. Where no end group is shown, it is not given here. [ ]: non-standard residue; d: D form. The star is where a group is joined. Toyopearl = Toyopearl AF-Amino-650M resin to which the C-terminus is tethered; Trp(1-Me) = Cn1cc(C[C@H](N)C(=O)O)c2ccccc21; Phe(4-Me) = Cc1ccc(C[C@H](N)C(=O)O)cc1; Lys(Me2) = CN(C)CCCC[C@H](N)C(=O)O; Cit = NC(=O)NCCC[C@H](N)C(=O)O; For = O=C*

Legend:
α-chymotrypsin = molecular target: T1, α-chymotrypsin (Bos taurus, UniProt P00766); assay: Resistance of peptide ligands to proteolytic digestion: IgG yield after contact with α-chymotrypsin; assay type: in vitro ADME; conditions: for IgG Yield 2nd run (after α-chymotrypsin): after contact with α-chymotrypsin in Tris buffer pH 8.5 for 10 minutes; for resistance to α-chymotrypsin (in words): loss of IgG binding capacity after enzyme treatment, FIG. 2
T1 construct: purchased Sigma Aldrich
Method: (§1) All resins (35 mg each) were packed in a 30 mm×2.1 mm I.D. Microbore column (0.1 mL) (Alltech-Applied Science, Somerset, Pa., USA) and swollen with 20% v/v methanol. After equilibration with PBS, pH 7.4, three IgG binding tests were performed using a 10 mg/mL solution of hIgG in PBS. Between each binding test, the resin was contacted with a 0.15 mg/mL solution of either trypsin or α-chymotrypsin in Tris HCl buffer, pH 8.5. The chromatographic protocol employed for all five injections was as follows. One hundred microliters of feed sample was loaded onto the column at a flow rate of 0.05 mL/min (87 cm/h). After a washing step with 2 mL of equilibration buffer at a flow rate of 0.2 mL/min (348 cm/h), elution was performed with 4 mL of 0.2M acetate buffer pH 4.0 at a flow rate of 0.4 mL/min (696 cm/h). Finally, the adsorbent was regenerated with 4 mL of 0.85% phosphoric acid. The adsorbents HWRGWV-, HYFKFD-, and HFRRHL-Toyopearl (SEQ ID NOS: 6, 16, 17) resins were used as controls. The effluent was monitored by absorbance at 280 nm.
(§2) Based on the results reported in Table 2, the original sequences HWRGWV, HFRRHL, and HYFKFD (SEQ ID NOS: 1-3), and their variants HWMetCitGWMetV, HFMetCitCitHL, and HYMetFMetK(Met)2FMetD (SEQ ID NOS: 4, 5, 7) were tested for their resistance to enzymatic digestion. The sequences HWMetCitGWMetV (SEQ ID NO: 8), HFMetCitCitHL (SEQ ID NO: 5) were selected as the best variants of their respective original peptides, while HYMetFMetKMet2FMetD (SEQ ID NO: 7) was used as a negative control. […] Each adsorbent was subjected to five consecutive chromatographic runs. First, a solution of pure human polyclonal IgG at 10 mg/mL in PBS was injected to determine IgG yield for each adsorbent prior to contact with any enzyme. All four peptide variants gave a yield above 91% for this initial run. The resin was then contacted with a solution of α-chymotrypsin in Tris buffer pH 8.5 for 10 minutes. The amount of enzyme loaded onto the column was in a mass ratio of 1:100 peptide:enzyme, as done by Verdoliva et al.. After rinsing the resin, a second injection of IgG was then performed to estimate the loss of binding capacity due to the digestion of the peptide ligand by α-chymotrypsin. The resin was then contacted with the second enzyme solution, i.e., trypsin in Tris buffer pH 8.5, at the same peptide:enzyme ratio. A third IgG injection was finally performed to estimate the residual binding capacity of each resin after the second enzyme treatment.

trypsin = assay: Resistance of peptide ligands to proteolytic digestion: IgG yield after contact with trypsin; assay type: in vitro ADME; conditions: for IgG Yield 3rd run (after trypsin): after α-chymotrypsin and then trypsin in Tris buffer pH 8.5; for resistance to trypsin (in words): loss of IgG binding capacity after enzyme treatment, FIG. 2
Method: as §1, §2

IgG = assay: Purification of IgG (IVIG) from Cohn fraction II+III of human plasma, yield and purity; assay type: binding
Method: Cohn fraction II+III was dissolved in PBS, pH 7.4 to obtain an approximate IgG concentration of 5 mg/mL and filtered sequentially using a 0.44 μm and a 0.22 μm filter from Pall Corporation (Port Washington, N.Y., USA). […] After equilibration with PBS buffer containing 0.25M NaCl, 100 μL of feed sample was loaded onto the column at a flow rate of 0.05 mL/min (87 cm/h). After washing the column with 2 mL of equilibration buffer at a flow rate of 0.2 mL/min (348 cm/h), elution was performed with 4 mL of 0.2M acetate buffer pH 5.0 at a flow rate of 0.4 mL/min (696 cm/h). Cleaning and regeneration were performed using 4 mL of 0.85% phosphoric acid followed by a wash with 4 mL of 2M urea in acetate buffer (pH 4.0). Toyopearl AF-rProtein A-650F resin was used as a positive control. As per manufacturer's instructions, the chromatographic protocol comprised binding with PBS, pH 7.4 (at a flow rate of 0.05 mL/min) and elution with 0.1M Glycine buffer pH 2.5 (at a flow rate of 0.4 mL/min). The effluent was monitored by absorbance at 280 nm. Fractions were collected and used for analysis of IgG purity and yield as described below.
The effect of conductivity of the binding buffer was studied at 0, 0.135 and 0.25 M NaCl added to PBS. After equilibration with binding buffer, 100 μL of feed was loaded onto the column at a flow rate of 0.05 mL/min (87 cm/h). Chromatographic protocol and fraction collection were done as above described.
The amount of IgG in the collected fractions was quantified by HPLC using 1 mL HiTrap Protein G column. The yield of IgG was calculated as the ratio of IgG eluted to total IgG loaded. The purity of IgG in the eluted fractions was determined by sodium dodecyl sulfate polyacrylamide gel electrophoresis (SDS-PAGE) under reducing conditions using NuPAGE® Novex 4-12% Bis-Tris gels in a Xcell SuperLock™ Mini-Cell system (LifeSciences, Carlsbad, Calif., USA). Sample preparation was done by adding 5 μL of NuPAGE® LDS buffer and 2 μL of NuPAGE® reducing agent to 13 μL of sample and boiling the resulting mixture for 10 min. Gels were Coomassie-stained by using SimpleBlue™ SafeStain. The IgG purity was determined by densitometric analysis of Coomassie-stained gels by means of ImageJ 1.32j software (National Institutes of Health, Bethesda, Md., USA).
The purity of the product was calculated as the fraction of the total area equivalent to the IgG bands at 25 and 50 KDa.
The original peptide ligands were employed as positive controls. The crude stock of Cohn II+III paste was diluted in PBS to prepare the feed sample and solid particles were removed by filtration prior to injection into the column. The chromatographic protocol adopted in this work was derived from previous optimizations and comprised the use of 0.25M NaCl in PBS as binding buffer and 0.2M acetate buffer pH 5.0 for elution [24]. Fractions were collected and analyzed by Protein G chromatography and SDS-PAGE (FIG. 3) to determine IgG yield and purity respectively.
To verify this hypothesis, binding studies were repeated using the above listed sequences and three binding buffers, comprising 0M, 0.13M, and 0.25M NaCl in PBS.

human polyclonal IgG = assay: Chromatographic IgG binding test of peptide-Toyopearl adsorbents with pure human polyclonal IgG; conditions: peptide on Toyopearl resin, approx. 0.12 meq/g, 0.1 mL column; ratio of IgG eluted to total IgG loaded
Method: All resins (35 mg each) were packed in a 30 mm×2.1 mm I.D. Microbore column (0.1 mL) (Alltech-Applied Science, Somerset, Pa., USA) and swollen with 20% v/v methanol. After equilibration with PBS, pH 7.4, three IgG binding tests were performed using a 10 mg/mL solution of hIgG in PBS. Between each binding test, the resin was contacted with a 0.15 mg/mL solution of either trypsin or α-chymotrypsin in Tris HCl buffer, pH 8.5. The chromatographic protocol employed for all five injections was as follows. One hundred microliters of feed sample was loaded onto the column at a flow rate of 0.05 mL/min (87 cm/h). […] The effluent was monitored by absorbance at 280 nm.
The amount of IgG in the collected fractions was quantified by HPLC using 1 mL HiTrap Protein G column. The yield of IgG was calculated as the ratio of IgG eluted to total IgG loaded. The purity of IgG in the eluted fractions was determined by sodium dodecyl sulfate polyacrylamide gel electrophoresis (SDS-PAGE) under reducing conditions using NuPAGE® Novex 4-12% Bis-Tris gels in a Xcell SuperLock™ Mini-Cell system (LifeSciences, Carlsbad, Calif., USA). […] The IgG purity was determined by densitometric analysis of Coomassie-stained gels by means of ImageJ 1.32j software (National Institutes of Health, Bethesda, Md., USA). […]

[1] = 0.25M NaCl in PBS binding buffer
[2] = 0.13M NaCl in PBS binding buffer

Row | Compound | IgG Yield 2nd run (after α-chymotrypsin) (α-chymotrypsin) | IgG Yield 3rd run (after trypsin) (trypsin) | resistance to trypsin (in words) (trypsin) | resistance to α-chymotrypsin (in words) (α-chymotrypsin) | other results
1 | Cc1ccc(C[C@H](NC(=O)[C@@H](N)Cc2c[nH]cn2)C(=O)N[C@@H](CCCNC(N)=O)C(=O)N[C@@H](CCCNC(N)=O)C(=O)N[C@@H](Cc2c[nH]cn2)C(=O)N[C@@H](CC(C)C)C(=O)O)cc1 [HFMetCitCitHL] (H-H[Phe(4-Me)][Cit][Cit]HL-OH; N-terminus and C-terminus assumed) | 92% | 91% |  |  | 
2 | CC(C)[C@H](NC(=O)[C@H](Cc1c[nH]c2ccccc12)NC(=O)CNC(=O)[C@H](CCCNC(N)=O)NC(=O)[C@H](Cc1c[nH]c2ccccc12)NC(=O)[C@@H](N)Cc1c[nH]cn1)C(=O)O [HWCitGWV] (H-HW[Cit]GWV-OH; N-terminus and C-terminus assumed) | 73% | 71% | resistance towards one enzyme only |  | 
3 | CC(C)[C@H](NC(=O)[C@H](Cc1cn(C=O)c2ccccc12)NC(=O)CNC(=O)[C@H](CCCNC(N)=O)NC(=O)[C@H](Cc1cn(C=O)c2ccccc12)NC(=O)[C@@H](N)Cc1c[nH]cn1)C(=O)O [HWForCitGWForV] (H-HW(For)[Cit]GW(For)V-OH; N-terminus and C-terminus assumed) | 69% | 69% |  |  | 
4 | CC(C)[C@H](NC(=O)[C@H](Cc1cn(C)c2ccccc12)NC(=O)CNC(=O)[C@H](CCCNC(N)=O)NC(=O)[C@H](Cc1cn(C)c2ccccc12)NC(=O)[C@@H](N)Cc1c[nH]cn1)C(=O)O [HWMetCitGWMetV] (H-H[Trp(1-Me)][Cit]G[Trp(1-Me)]V-OH; N-terminus and C-terminus assumed) | 91% | 90% | completely unaffected by either | completely unaffected by either | 
5 | CC(C)[C@H](NC(=O)[C@H](Cc1cn(C)c2ccccc12)NC(=O)CNC(=O)[C@H](CCCNC(=N)N)NC(=O)[C@H](Cc1cn(C)c2ccccc12)NC(=O)[C@@H](N)Cc1c[nH]cn1)C(=O)O [HWMetRGWMetV] (H-H[Trp(1-Me)]RG[Trp(1-Me)]V-OH; N-terminus and C-terminus assumed) | 91% | 82% |  | resistance towards one enzyme only | 
6 | COc1ccc(C[C@H](NC(=O)[C@@H](N)Cc2c[nH]cn2)C(=O)N[C@@H](Cc2ccc(C)cc2)C(=O)N[C@@H](CCCCN(C)C)C(=O)N[C@@H](Cc2ccc(C)cc2)C(=O)N[C@@H](CC(=O)O)C(=O)O)cc1 [HYMetFMetKMet2FMetD] (H-HY(Me)[Phe(4-Me)][Lys(Me2)][Phe(4-Me)]D-OH; N-terminus and C-terminus assumed) | 49% | 53% | high resistance to proteolysis | high resistance to proteolysis | 
7 | Ac-HWMetCitGWMetV: acetylated version of the variant HWMetCitGWMetV (Ac-H[Trp(1-Me)][Cit]G[Trp(1-Me)]V; not fully specified (C-terminus)) |  |  |  |  | IgG Purity (IgG; [1]): 92%; IgG yield over the binding buffers (IgG; over 0M, 0.13M, 0.25M NaCl binding buffers): above 90%
8 | Ac-HWRGWV: acetylated version of the original HWRGWV (not fully specified (C-terminus); printed as Ac-HWRGWV; also: TOYOPEARL at residue 6) |  |  |  |  | IgG Purity (IgG; 0M NaCl in PBS binding buffer): 80%; IgG Yield (IgG; 0M NaCl in PBS binding buffer): 91%; IgG Purity (IgG; [2]): 80%; IgG Yield (IgG; [2]): 84%; IgG Purity (IgG; [1]): 84%; IgG Yield (IgG; [1]): 83%
9 | HFRRHL [HFRRHL, reference compound] | 78% | 54% | good substrate for trypsin |  | 
10 | HFcarbCitCitHL: variant of HFRRHL designed using carbamoyl-phenylalanine and citrulline (HF[Cit][Cit]HL-Toyopearl; not fully specified (residue 2); printed as HFcarbCitCitHL) |  |  |  |  | IgG Yield (human polyclonal IgG): 53%
11 | HWMetCitDWMetV: variant created by replacing glycine with aspartic acid |  |  |  |  | IgG Yield (human polyclonal IgG): 47%
12 | HWRGWV [HWRGWV, reference compound] | 72% | 36% | degraded by both trypsin and α-chymotrypsin; also recorded: ideal substrate for trypsin | degraded by both trypsin and α-chymotrypsin | 
13 | HYFKFD [HYFKFD, reference compound] | 76% | 71% | almost immune to the attack of trypsin |  | 
